Data set [1] deals with Macrotyloma uniflorum urease. Description: in vitro urease inhibitory assay (modified Berthelot reaction, indophenol blue, absorbance at 630 nm). It counts as biochemical, Macrotyloma uniflorum (Horse gram). To be noted: for Maximum Percentage of Inhibition: maximum over tested range 5.00-35.00 μg/mL; for IC50: urease extracted from Macrotyloma uniflorum, thiourea as standard inhibitor, 37 °C, pH 7.2. As for the experimental part:
All synthesized oxime compounds (2, 6, 7, 8, and 9) were evaluated for the in vitro urease inhibitory activity using a colorimetric method. This method involves the formation of indophenol blue in a basic medium where the modified Berthelot reaction is used. The urease enzyme required for the assay was extracted from Macrotyloma uniflorum (Horse gram) with the activity of 0.1013 U, and thiourea was used as the standard inhibitor [34]. The amount of ammonia produced within a given period of time was quantified using a standard calibration method.
Modified Berthelot method was used for the determination of the amount of produced ammonia, and thereby for the quantification of the urease inhibitory activities of the synthesized oxime derivatives (compounds 2, 6, 7, 8, and 9) by measuring their absorbance at 630 nm. All the test compounds and thiourea were prepared by dissolving 2 mg of each compound in 20 mL of 1.25% DMF - buffer solution (pH = 7.2, Na2HPO4 = 0.067 mol dm^−3, KH2PO4 = 0.033 mol dm^−3). DMF doesn’t show any inhibitory effect on urease activity. Initially, a 96 well plate filled with 10 μL of urease enzyme (0.01 U) and 10–70 μL of the test compound was placed in the plate reader and incubated at 37 °C for 15 min. (Concentration of each sample was changed by varying the volume of test compounds from 10 to 70 μL.) Then, to each well, 10 μL of the buffer, 10 μL of EDTA (0.025 mol dm^−3), and 10 μL of urea (0.64 mol dm^−3) were added. After that, 80–20 μL of distilled water was added accordingly to adjust the total volume to 130 μL and incubated in plate reader for another 20 min at 37 °C. Then 35 μL of each coloring agents ((coloring agent A—1% (w/v) phenol, 0.005% (w/v) sodium nitroprusside and coloring agent B—0.5% (w/v) NaOH, 0.05% (v/v) NaOCl)) were introduced to each well, and the plate was incubated in plate reader for another 50 min at 37 °C for the development of indophenol blue color. At the end of the 50 min, the absorbance of each sample was measured at the absorbance wavelength of 630 nm. A control test was conducted to quantify the total hydrolysis of urea in the presence of urease (C). Negative control was carried out to quantify the spontaneous hydrolysis of urea in the absence of the urease enzyme (N). For each sample (T1–7), a negative control test (N1–7) was performed in the absence of the urease enzyme. All experiments were performed thrice. The percentage inhibition of the urease enzyme was calculated using Equation (1). (1) percentage inhibition=[[AC−AN]−[AT1−AN1]/[AC−AN]]×100 where • AC = Absorbance of the control sample (C) • AN = Absorbance of the negative control sample (N) • AT1−7 = Absorbance of the test sample (T1 to T7) • AN1−7 = Absorbance of the negative control of the test sample (N1 to N7)

Broadly, the IC50 is the concentration that gives 50% inhibition. Regarding `O/N=C\c1c[nH]c2ccccc12` [Compound 2, (Z)-N-hydroxy-1-(1H-indole-3-yl)methanimine], the “Percentage inhibition (± SEM)” value in data set [1] (at 5.00 μg/mL) is on record as 17.46 ± 0.71%; in data set [1] (at 10.00 μg/mL), 24.56 ± 0.53%; in data set [1] (at 15.00 μg/mL) it was 29.28 ± 0.52%; in data set [1] (at 20.00 μg/mL), 39.40 ± 0.65%; in data set [1] (at 25.00 μg/mL) it was 57.27 ± 0.63%; in data set [1] (at 30.00 μg/mL), 64.87 ± 0.93%. Also, the “Maximum Percentage of Inhibition” value in data set [1] is 67.81%. In data set [1], this compound yielded a half-inhibitory concentration (IC50) of 141 ± 7.5 µM.

Broadly, the melting point is the temperature of the solid-liquid transition. In the case of `Cn1cc(/C=N\O)c2ccccc21` [Compound 6, (Z)-N-hydroxy-1-(1-methyl-1H-indol-3-yl)methanimine], the melting point is 112 to 115 °C. The “Percentage inhibition (± SEM)” value in data set [1] (at 5.00 μg/mL) stood at 24.57 ± 1.22%. The “Percentage inhibition (± SEM)” value in data set [1] (at 10.00 μg/mL) was found to be 28.15 ± 0.81%. Also, the “Percentage inhibition (± SEM)” value in data set [1] (at 15.00 μg/mL) amounted to 29.91 ± 0.90%. In data set [1] (at 20.00 μg/mL), the “Percentage inhibition (± SEM)” value was 40.38 ± 0.24%. The “Percentage inhibition (± SEM)” value in data set [1] (at 25.00 μg/mL) is 55.76 ± 0.60%. Moreover, the “Percentage inhibition (± SEM)” value in data set [1] (at 30.00 μg/mL) worked out at 73.07 ± 0.35%. Besides, in data set [1], the “Maximum Percentage of Inhibition” value is 77.05% and the IC50 was determined as 140 ± 4.5 µM.

In turn, `Cn1cc(/C=N/O)c2ccccc21` [Compound 7, (E)-N-hydroxy-1-(1-methyl-1H-indol-3-yl)methanimine] registered a melting point of 126 to 129 °C. Besides, the “Percentage inhibition (± SEM)” value in data set [1] (at 5.00 μg/mL) is given as 22.74 ± 0.93%. In addition, the “Percentage inhibition (± SEM)” value in data set [1] (at 10.00 μg/mL) turned out to be 31.87 ± 0.59%. In addition, the “Percentage inhibition (± SEM)” value in data set [1] (at 15.00 μg/mL) came to 38.14 ± 1.25%. Further, in data set [1] (at 20.00 μg/mL), the “Percentage inhibition (± SEM)” value is listed as 44.38 ± 0.35%. Besides, the “Percentage inhibition (± SEM)” value in data set [1] (at 25.00 μg/mL) was 48.92 ± 0.67%. Further, the “Percentage inhibition (± SEM)” value in data set [1] (at 30.00 μg/mL) came to 53.01 ± 0.85%. For the same compound, in data set [1], the “Maximum Percentage of Inhibition” value was 57.17% and 153 ± 1.6 µM corresponded to half-maximal inhibition (IC50).

Compound `O/N=C\c1cn(Cc2ccccc2)c2ccccc12` [Compound 8, (Z)-1-(1-benzyl-1H-indol-3-yl)-N-hydroxymethanimine] registered a melting point of 132 to 134 °C. Further, in data set [1] (at 5.00 μg/mL), the “Percentage inhibition (± SEM)” value was found to be 36.36 ± 0.79%. In addition, the “Percentage inhibition (± SEM)” value in data set [1] (at 10.00 μg/mL) was 44.39 ± 0.70%. In data set [1] (at 15.00 μg/mL), the “Percentage inhibition (± SEM)” value came out at 58.52 ± 0.58%. Moreover, the “Percentage inhibition (± SEM)” value in data set [1] (at 20.00 μg/mL) is reported as 67.99 ± 1.01%. For the same compound, the “Percentage inhibition (± SEM)” value in data set [1] (at 25.00 μg/mL) is 76.49 ± 1.24%. In data set [1] (at 30.00 μg/mL), the “Percentage inhibition (± SEM)” value is 79.64 ± 0.88%. For the same compound, in data set [1], the “Maximum Percentage of Inhibition” value is on record as 83.78% and the IC50 came to 51.6 ± 3.5 µM.

Consider `O/N=C/c1cn(Cc2ccccc2)c2ccccc12` [Compound 9, (E)-1-(1-benzyl-1H-indol-3-yl)-N-hydroxymethanimine], for which the melting point was 140 to 143 °C. For the same compound, in data set [1] (at 5.00 μg/mL), the “Percentage inhibition (± SEM)” value worked out at 33.06 ± 1.23%. Further, the “Percentage inhibition (± SEM)” value in data set [1] (at 15.00 μg/mL) is on record as 72.38 ± 0.77%. Further, the “Percentage inhibition (± SEM)” value in data set [1] (at 20.00 μg/mL) came to 77.61 ± 1.55%. The “Percentage inhibition (± SEM)” value in data set [1] (at 25.00 μg/mL) is 83.21 ± 0.82%. In addition, the “Percentage inhibition (± SEM)” value in data set [1] (at 30.00 μg/mL) is recorded as 84.89 ± 0.47%. Moreover, in data set [1], the “Maximum Percentage of Inhibition” value was found to be 86.09% and the 50% inhibitory concentration (IC50) turned out to be 34.5 ± 0.8 µM.

Regarding `NC(N)=S` [Thiourea, thiourea, reference compound], the “Percentage inhibition (± SEM)” value in data set [1] (at 5.00 μg/mL) stood at 11.24 ± 0.28%; in data set [1] (at 10.00 μg/mL) it was 22.61 ± 0.49%; in data set [1] (at 15.00 μg/mL), 38.41 ± 0.63%; in data set [1] (at 20.00 μg/mL), 61.54 ± 0.53%; in data set [1] (at 25.00 μg/mL) it was 74.36 ± 0.50%; in data set [1] (at 30.00 μg/mL), 81.49 ± 0.67%. Further, the “Maximum Percentage of Inhibition” value in data set [1] was determined as 85.14%. The compound further came in with an IC50 in data set [1] of 239 ± 4.8 µM.

Source of the values: article PMC8588131, “Synthesis, In Silico Studies, and Evaluation of Syn and Anti Isomers of N-Substituted Indole-3-carbaldehyde Oxime Derivatives as Urease Inhibitors against Helicobacter pylori” (Molecules, 2021).
